According to ChEMBL document CHEMBL3352762 (J Med Chem, 2014):
Calls of active or inactive are those of the source. The rule behind the calls is not given here. Peptide text beside a SMILES is read from it.

Columns and labels:
Urotensin-2 receptor [1] = biological target: T1, Urotensin-2 receptor (Homo sapiens, UniProt Q9UKP6); assay: Displacement of [125I]urotensin-2 from human recombinant UT receptor expressed in CHO-K1 cells by scintillation counting method; type: cell-based
T1 sequence (Q9UKP6 whole entry): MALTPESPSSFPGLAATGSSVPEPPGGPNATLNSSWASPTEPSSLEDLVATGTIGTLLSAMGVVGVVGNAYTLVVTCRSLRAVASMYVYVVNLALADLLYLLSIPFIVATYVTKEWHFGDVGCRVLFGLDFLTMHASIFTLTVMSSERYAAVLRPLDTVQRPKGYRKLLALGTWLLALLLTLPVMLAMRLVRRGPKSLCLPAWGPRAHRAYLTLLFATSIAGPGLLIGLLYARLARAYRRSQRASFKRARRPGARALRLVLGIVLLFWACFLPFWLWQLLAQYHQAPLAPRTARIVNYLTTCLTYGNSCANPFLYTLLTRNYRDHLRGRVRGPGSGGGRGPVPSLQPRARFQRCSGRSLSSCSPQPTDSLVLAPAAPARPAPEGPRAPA

Urotensin-2 receptor [2] = biological target: T2, Urotensin-2 receptor (Rattus norvegicus, UniProt P49684); assay: (§1) Agonist activity at UT receptor in rat aorta assessed as contraction; type: tissue-based
T2 sequence (P49684 whole entry): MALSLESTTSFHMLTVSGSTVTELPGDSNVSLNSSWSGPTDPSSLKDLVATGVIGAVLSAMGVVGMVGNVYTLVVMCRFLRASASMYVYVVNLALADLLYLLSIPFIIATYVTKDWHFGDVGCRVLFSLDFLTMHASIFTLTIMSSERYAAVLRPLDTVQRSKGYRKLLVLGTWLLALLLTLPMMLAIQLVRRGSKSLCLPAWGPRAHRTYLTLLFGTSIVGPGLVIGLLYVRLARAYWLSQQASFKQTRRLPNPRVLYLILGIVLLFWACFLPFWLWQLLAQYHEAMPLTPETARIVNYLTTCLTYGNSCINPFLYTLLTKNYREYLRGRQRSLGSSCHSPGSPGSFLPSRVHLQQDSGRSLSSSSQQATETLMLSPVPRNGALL

[3] = biological target: T3, Urotensin-2 receptor (Rattus norvegicus) (UniProt P49684); assay: Agonist activity at UT receptor in rat aorta assessed as contraction relative to urotensin-2; type: tissue-based
T3 sequence (whole entry): T2 sequence (P49684 whole entry)

[4] = Stability in 25% fetal calf serum assessed as parent compound remaining at 80 uM at 37 degC after 16 hrs by RP-HPLC-UV based detection assay; type: ADME, Bos taurus; conditions: cattle, read-out: Stability
[5] = Stability in 25% fetal calf serum assessed as parent compound remaining at 80 uM at 37 degC after 36 hrs by RP-HPLC-UV based detection assay; type: ADME, Bos taurus; conditions: cattle, read-out: Stability
[6] = biological target: T3, Urotensin-2 receptor (Rattus norvegicus); assay: as §1; type: tissue-based
[7] = biological target: T3, Urotensin-2 receptor (Rattus norvegicus); assay: Competitive antagonist activity at UT receptor in rat aorta assessed as effect on urotensin-2-induced contraction; type: tissue-based
[8] = biological target: T4, Urotensin-2 receptor (Homo sapiens) (UniProt Q9UKP6); assay: Partial agonist activity at human recombinant UT receptor expressed in CHO-K1 cells assessed as stimulation of intracellular calcium mobilization by FLIPR assay; type: functional, cell-based
T4 sequence (whole entry): T1 sequence (Q9UKP6 whole entry)

[9] = biological target: T4, Urotensin-2 receptor (Homo sapiens); assay: Partial agonist activity at human recombinant UT receptor expressed in CHO-K1 cells assessed as stimulation of intracellular calcium mobilization at 1 uM by FLIPR assay relative to urotensin-2; type: functional, cell-based
[10] = biological target: T4, Urotensin-2 receptor (Homo sapiens); assay: Partial agonist activity at human recombinant UT receptor expressed in CHO-K1 cells assessed as stimulation of intracellular calcium mobilization at 10 uM by FLIPR assay relative to urotensin-2; type: functional, cell-based

Compound: CC(C)[C@H](NC(=O)[C@@H]1CSSC(C)(C)[C@H](NC(=O)[C@@H](N)CC(=O)O)C(=O)N[C@@H](Cc2ccccc2)C(=O)N[C@H](Cc2c[nH]c3ccccc23)C(=O)N[C@@H](CCCN)C(=O)N[C@@H](Cc2ccc(Cl)c(Cl)c2)C(=O)N1)C(=O)O
- Ki (Urotensin-2 receptor [1]): 2.24 nM
- EC50 (Urotensin-2 receptor [2]): 12.9 nM
- Emax [3]: 26%

Compound: CC(C)[C@H](NC(=O)[C@@H]1CSSC(C)(C)[C@H](NC(=O)[C@@H](N)CC(=O)O)C(=O)N[C@@H](Cc2ccccc2)C(=O)N[C@@H](Cc2c[nH]c3ccccc23)C(=O)N[C@@H](CCCCN)C(=O)N[C@@H](Cc2cccc3ccccc23)C(=O)N1)C(=O)O (HELM PEPTIDE1{D.[Pen].F.W.K.[O=C([C@H](Cc1cccc2ccccc12)N[*:1])[*:2]].C.V}$PEPTIDE1,PEPTIDE1,2:R3-7:R3$$$V2.0)
- Ki (Urotensin-2 receptor [1]): 0.398 nM
- EC50 (Urotensin-2 receptor [2]): 5.01 nM
- Emax [3]: 86%

Compound: CC(C)[C@H](NC(=O)[C@@H]1CSSC(C)(C)[C@H](NC(=O)[C@@H](N)CC(=O)O)C(=O)N[C@@H](Cc2ccccc2)C(=O)N[C@@H](Cc2c[nH]c3ccccc23)C(=O)N[C@@H](CCCCN)C(=O)N[C@@H](Cc2ccc(O)cc2)C(=O)N1)C(=O)O (HELM PEPTIDE1{D.[Pen].F.W.K.Y.C.V}$PEPTIDE1,PEPTIDE1,2:R3-7:R3$$$V2.0)
- Ki (Urotensin-2 receptor [1]): 0.2 nM
- EC50 (Urotensin-2 receptor [2]): 0.398 nM
- Emax [3]: 95%
- remaining at 16 h, 80 µM [4]: 65%
- remaining at 36 h, 80 µM [5]: 45%

Compound: CC(C)[C@H](NC(=O)[C@@H]1CSSC[C@H](NC(=O)[C@H](CC(=O)O)NC(=O)[C@@H]2CCCN2C(=O)[C@@H](NC(=O)[C@@H](N)CCC(=O)O)[C@@H](C)O)C(=O)N[C@@H](Cc2ccccc2)C(=O)N[C@@H](Cc2c[nH]c3ccccc23)C(=O)N[C@@H](CCCCN)C(=O)N[C@@H](Cc2ccc(O)cc2)C(=O)N1)C(=O)O [UROTENSIN-II]
- EC50 (Urotensin-2 receptor [2]): 3.16 nM
- Emax [3]: 100%

Compound: CC(C)[C@H](NC(=O)[C@@H]1CSSC(C)(C)[C@H](NC(=O)[C@@H](N)CC(=O)O)C(=O)N[C@@H](Cc2ccccc2)C(=O)N[C@@H](Cc2c[nH]c3ccccc23)C(=O)N[C@@H](CCCCN)C(=O)N[C@@H](Cc2ccc([N+](=O)[O-])cc2)C(=O)N1)C(=O)O (HELM PEPTIDE1{D.[Pen].F.W.K.[O=C([C@H](Cc1ccc([N+](=O)[O-])cc1)N[*:1])[*:2]].C.V}$PEPTIDE1,PEPTIDE1,2:R3-7:R3$$$V2.0)
- Ki (Urotensin-2 receptor [1]): 1.78 nM
- EC50 (Urotensin-2 receptor [2]): 0.631 nM
- Emax [3]: 95%

Compound: CC(C)[C@H](NC(=O)[C@@H]1CSSC(C)(C)[C@H](NC(=O)[C@@H](N)CC(=O)O)C(=O)N[C@@H](Cc2ccccc2)C(=O)N[C@H](Cc2c[nH]c3ccccc23)C(=O)N[C@@H](CCCN)C(=O)N[C@@H](Cc2ccc(O)cc2)C(=O)N1)C(=O)O [URANTIDE] (HELM PEPTIDE1{D.[Pen].F.[dW].[Orn].Y.C.V}$PEPTIDE1,PEPTIDE1,2:R3-7:R3$$$V2.0)
- remaining at 36 h, 80 µM [5]: > 50%

Compound: CC(C)[C@H](NC(=O)[C@@H]1CSSC(C)(C)[C@@H](NC(=O)[C@@H](N)CC(=O)O)C(=O)N[C@@H](Cc2ccccc2)C(=O)N[C@H](Cc2c[nH]c3ccccc23)C(=O)N[C@@H](CCCN)C(=O)N[C@@H](Cc2ccc(O)cc2)C(=O)N1)C(=O)O (HELM PEPTIDE1{D.[CC(C)(S[*:3])[C@@H](N[*:1])C(=O)[*:2]].F.[dW].[Orn].Y.C.V}$PEPTIDE1,PEPTIDE1,2:R3-7:R3$$$V2.0)
- pEC50 [6]: inactive
- Emax [3]: 0%
- pKb [7]: 8.32
- Activity [8]: Active
- Efficacy [9]: 43.3%
- Efficacy [10]: 46.2%

Compound: CC(C)[C@H](NC(=O)[C@@H]1CSSC(C)(C)[C@H](NC(=O)[C@@H](N)CC(=O)O)C(=O)N[C@@H](Cc2ccccc2)C(=O)N[C@@H](Cc2c[nH]c3ccccc23)C(=O)N[C@@H](CCCCN)C(=O)N[C@@H](Cc2ccc(Cl)cc2)C(=O)N1)C(=O)O (HELM PEPTIDE1{D.[Pen].F.W.K.[O=C([C@H](Cc1ccc(Cl)cc1)N[*:1])[*:2]].C.V}$PEPTIDE1,PEPTIDE1,2:R3-7:R3$$$V2.0)
- Ki (Urotensin-2 receptor [1]): 1.23 nM
- EC50 (Urotensin-2 receptor [2]): 0.813 nM
- Emax [3]: 85%

Compound: CC(C)[C@H](NC(=O)[C@@H]1CSSC(C)(C)[C@H](NC(=O)[C@@H](N)CC(=O)O)C(=O)N[C@@H](Cc2ccccc2)C(=O)N[C@H](Cc2c[nH]c3ccccc23)C(=O)N[C@@H](CCCN)C(=O)N[C@@H](Cc2nc3ccccc3s2)C(=O)N1)C(=O)O
- Ki (Urotensin-2 receptor [1]): 12.9 nM
- EC50 (Urotensin-2 receptor [2]): 33.9 nM
- Emax [3]: 57%
